# Reference: patent EP1097196B2, “GL[…]” (priority 1998, dated 2000)
# Key:
# Assay in all cases: Specific activity as kcat on purified enzyme
# Type in all cases: biochemical
# Conditions in all cases: pH 4.3, 37°C, purified sample
# [1] = tested on: Aspergillus niger glucoamylase AMG G2 (SEQ ID NO: 2) variant G127A
# Experimental: (§1) Maltose: 29mM (1g maltose in 100ml 50mM sodium acetate, pH 4.5) (Sigma) Maltoheptaose: 10 mM, 115 mg/10 ml (Sigma)
# (§2) Determining Specific Activity As kcat (sec.^-1).
# (§3) 750 microL substrate (1% maltose, 50 mM Sodium acetat, pH 4.3) is incubated 5 minutes at selected temperature, such as 37°C or 60°C.
# (§4) 50 microL enzyme diluted in sodium acetate is added. Aliquots of 100 microL are removed after 0, 3, 6, 9 and 12 minutes and transferred to 100 microL 0.4 M Sodium hydroxide to stop the reaction. A blank is included. 20 microL is transferred to a Micro titre plates and 200 microL GOD-Perid solution is added. Absorbance is measured at 650 nm after 30 minutes incubation at room temperature. Glucose is used as standard and the specific activity is calculated as kcat (sec.^-1).
# (§5) AMG G2 variants were constructed as described above in Example 1. The specific activity as kcat were measured on purified samples at pH 4.3, 37°C, using maltose and maltohepatose as substrate as described in the "Materials & Methods" section above. The specific activity as AGU/mg were also measured at pH 4.3, 37°C, using maltose as substrate as described in the "Materials & Methods" section above.
# [2] = tested on: Aspergillus niger glucoamylase AMG G2 (SEQ ID NO: 2) variant G207N
# Experimental: as §1, §2, §3, §4, §5
# [3] = tested on: Aspergillus niger glucoamylase AMG G2 (SEQ ID NO: 2) variant N110T
# Experimental: as §1, §2, §3, §4, §5
# [4] = tested on: Aspergillus niger glucoamylase AMG G2 (SEQ ID NO: 2) variant S119P
# Experimental: as §1, §2, §3, §4, §5
# [5] = tested on: Aspergillus niger glucoamylase AMG G2 (SEQ ID NO: 2) variant V111P
# Experimental: as §1, §2, §3, §4, §5
# [6] = tested on: Aspergillus niger glucoamylase AMG G2 (wt), SEQ ID NO: 2
# Experimental: as §1, §2, §3, §4, §5
Compound,Kcat (Maltose) ([1]; substrate maltose) [sec.-1],Kcat (Maltose) ([2]; substrate maltose) [sec.-1],Kcat (Maltose) ([3]; substrate maltose) [sec.-1],Kcat (Maltose) ([4]; substrate maltose) [sec.-1],Kcat (Maltose) ([5]; substrate maltose) [sec.-1],Kcat (Maltose) ([6]; substrate maltose) [sec.-1],Kcat (Maltoheptaose) ([1]; substrate maltoheptaose) [sec.-1],Kcat (Maltoheptaose) ([2]; substrate maltoheptaose) [sec.-1],Kcat (Maltoheptaose) ([3]; substrate maltoheptaose) [sec.-1],Kcat (Maltoheptaose) ([4]; substrate maltoheptaose) [sec.-1],Kcat (Maltoheptaose) ([5]; substrate maltoheptaose) [sec.-1],Kcat (Maltoheptaose) ([6]; substrate maltoheptaose) [sec.-1]
OC[C@H]1O[C@H](O[C@H]2[C@H](O)[C@@H](O)C(O)O[C@@H]2CO)[C@H](O)[C@@H](O)[C@@H]1O (mixture of isomers) [Maltose],21.0,30.5,9.7,6.2,12.0,6.0,,,,,,
OC[C@H]1O[C@H](O[C@H]2[C@H](O)[C@@H](O)[C@@H](O[C@H]3[C@H](O)[C@@H](O)[C@@H](O[C@H]4[C@H](O)[C@@H](O)[C@@H](O[C@H]5[C@H](O)[C@@H](O)[C@@H](O[C@H]6[C@H](O)[C@@H](O)[C@@H](O[C@H]7[C@H](O)[C@@H](O)C(O)O[C@@H]7CO)O[C@@H]6CO)O[C@@H]5CO)O[C@@H]4CO)O[C@@H]3CO)O[C@@H]2CO)[C@H](O)[C@@H](O)[C@@H]1O (stereo partly drawn) [Maltoheptaose],,,,,,,40.0,36.3,27.8,44.0,43.2,38
